Legend:
[1] = molecular target: CrkL SH2 domain (Homo sapiens, UniProt P46109); experiment: Fluorescence polarization solution binding; details: Rhodamine B-labeled peptide, GST-SH2, Beacon 2000, read-out: Affinity (KD)
From the text: (§1) To verify the binding results obtained from addressable peptide arrays we employed an orthogonal method of determining SH2 interactions with peptide ligands. We measured the dissociation constants of 60 binary SH2-peptide pairs in solution by fluorescence polarization (Table 2, Additional file 2: Figures S3A-C).
(§2) Peptides were synthesized using FMOC-chemistry onto pre-loaded tenta-gel resins. Peptides were then labeled with Rhodamine B (Abbey Color) and then cleaved using trifluoroacetic acid. Peptides were lyophilized and then purified using a LC/MS (Agilent 2100). Dissociation constants were measured using the Beacon 2000 (Invitrogen) as previously described.
(§3) Binding Affinities determined by Fluorescence Polarization. Rhodamine B-labeled peptides were mixed with varying concentrations of GST-tagged SH2 domains. Fluorescence polarization measurements were read on a Beacon 2000 (Invitrogen). The curves were fit to a Michaelis-Menten equation to calculate the dissociation constant, KD. […] (C) Affinity measurements that fell below the 2X mean intensity and were considered array negative on the SPOT array.

[2] = molecular target: Grb2 SH2 domain (Homo sapiens, UniProt P62993); experiment: Fluorescence polarization solution binding; details: Rhodamine B-labeled peptide, GST-SH2, Beacon 2000, read-out: Affinity (KD)
Grb2 SH2 domain, sequence (P62993 60-152 limits assumed): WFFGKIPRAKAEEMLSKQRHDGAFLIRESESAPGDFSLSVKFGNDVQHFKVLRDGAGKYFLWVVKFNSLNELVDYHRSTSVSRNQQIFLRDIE
From the text: as §1, §2, §3

[3] = molecular target: PI3K1_N SH2 domain (Homo sapiens, UniProt P27986); experiment: Fluorescence polarization solution binding; details: Rhodamine B-labeled peptide, GST-SH2, Beacon 2000, read-out: Affinity (KD)
PI3K1_N SH2 domain, sequence (P27986 333-428 limits assumed): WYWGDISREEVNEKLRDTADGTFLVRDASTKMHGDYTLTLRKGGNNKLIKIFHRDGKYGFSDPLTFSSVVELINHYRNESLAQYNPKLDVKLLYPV
From the text: as §1, §2, §3

[4] = molecular target: Plcg2_C SH2 domain (Homo sapiens, UniProt P16885); experiment: Fluorescence polarization solution binding; details: Rhodamine B-labeled peptide, GST-SH2, Beacon 2000, read-out: Affinity (KD)
Plcg2_C SH2 domain, sequence (P16885 646-735 limits assumed): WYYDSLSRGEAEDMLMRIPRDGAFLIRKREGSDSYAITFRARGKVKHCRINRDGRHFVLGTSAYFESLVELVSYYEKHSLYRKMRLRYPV
From the text: as §1
As noted above, this study performs well in terms of reproducing the literature reported interactions between the 50 SH2 domains tested and the 13 proteins represented on the addressable arrays (Table 1). A handful of differences with literature-reported interactions must, by necessity, be reconciled. Our assumption is that a high-throughput (HTP) study such as this one should capture upwards of 85% of known (literature reported) interactions and that results that differ from low throughput studies described in the literature should be subject to further testing to identify the nature of the discrepancy and reveal any weakness in the HTP dataset. […] For instance, FGFR1 Y-766 (SNQEpYLDLSMP) is reported to bind to PLCγ1 in a pTyr dependant manner based on mutational analysis of FGFR1 [55, 56]. […] This may imply that either this is a binding event specific to PLCγ1 (and not PLCγ2), or that the interaction reported at the level of the full-length protein may be more complex, perhaps requiring secondary contact sites that are not available within the context of the short peptide used in the current study. […] We have made an effort to limit false negatives to those of lower affinity, and we are aware of no instance in our dataset of a sub-micromolar affinity interaction being scored as array-negative.
Peptides were synthesized using FMOC-chemistry onto pre-loaded tenta-gel resins. […] Dissociation constants were measured using the Beacon 2000 (Invitrogen) as previously described.
Binding Affinities determined by Fluorescence Polarization. […] Fluorescence polarization measurements were read on a Beacon 2000 (Invitrogen). […]

[5] = molecular target: T1, Ptpn11_N SH2 domain (Homo sapiens, UniProt Q06124); experiment: Fluorescence polarization solution binding; details: Rhodamine B-labeled peptide, GST-SH2, Beacon 2000, read-out: Affinity (KD)
T1 sequence (Q06124 6-102 limits assumed): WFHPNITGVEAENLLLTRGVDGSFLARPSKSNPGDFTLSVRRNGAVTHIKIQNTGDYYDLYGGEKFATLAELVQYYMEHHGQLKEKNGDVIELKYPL
From the text: as §1, §2, §3

[6] = molecular target: T2, Crk SH2 domain (Homo sapiens, UniProt P46108); experiment: Fluorescence polarization solution binding; details: Rhodamine B-labeled peptide, GST-SH2, Beacon 2000, read-out: Affinity (KD)
T2 sequence (P46108 13-118 limits assumed): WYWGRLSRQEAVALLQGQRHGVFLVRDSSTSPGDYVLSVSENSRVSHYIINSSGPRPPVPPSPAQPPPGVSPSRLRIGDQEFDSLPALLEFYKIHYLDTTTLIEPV
From the text: as §1, §2, §3

[7] = system: panel of 50 SH2 domains; experiment: SPOT peptide array probed with each of 50 GST-SH2 domains; format: binding; details: SH2 domains with intensity >3X array mean; GST-SH2 0.25 μM, 1 mM DTT
In short: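 Each GST-fused SH2 domain was overlaid on 192 membrane-synthesized pTyr peptides (11-mers, 4 N-terminal and 6 C-terminal flanking residues) and read with anti-GST and near-infrared secondary antibodies. Binding called relative to membrane mean intensity (>3× positive, <1× negative); GST-only probes defined nonspecific peptides.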

[8] = system: Lck SH2 domain; experiment: SPOT peptide array; format: binding; details: GST-SH2 0.25 μM; for Array positive: membrane-bound peptide, 1 mM DTT, LiCor read-out
[9] = molecular target: Lck SH2 domain; design: method as in PMID 11278862; details: read-out: Affinity (KD); cited from earlier work
[10] = molecular target: T3, Src SH2 domain (Homo sapiens, UniProt P12931); experiment: SPOT peptide array; format: binding; details: GST-SH2 0.25 μM; for Array positive: membrane-bound peptide, 1 mM DTT, LiCor read-out
In short: (§4)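 Membrane-bound 11-mer phosphotyrosine peptides (pTyr at position 5, four N-terminal and six C-terminal flanking residues; ~5 nmol per spot) from receptor, scaffold and signalling proteins were probed with GST–SH2 fusions. Bound domain was detected with anti-GST and near-infrared secondary antibodies; spots >3× membrane mean scored positive, <1× mean negative.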

[11] = molecular target: T3, Src SH2 domain; design: method as in 2 sources, ref [19] = [19]; PMID 7680959; doi:10.1016/0092-8674(93)90404-e; Songyang Z Shoelson SE Chaudhuri M Gish G Pawson T Haser WG King F Roberts T Ratnofsky S Lechleider RJ SH2 domains recognize specific phosphopeptide sequences Cell 1993 72 767 778 7680959 10.1016/0092 ||| ref [119, 121] = [119]; PMID 9032297; doi:10.1128/mcb.17.3.1702; Schlaepfer DD Broome MA Hunter T Fibronectin-stimulated signaling from a focal adhesion kinase-c-Src complex: involvement of the Grb2, p130cas, and Nck adaptor proteins Mol Cell Biol 1997 17 1702 1713 || [121]; PMID 16245368; doi:10.1002/jmr.755; Nasertorabi F Tars K Becherer K Kodandapani R Liljas L Vuori K Ely KR Molecular basis for regulation of Src by the docking protein p130Cas J Mol Recognit 2006 19 30 38 16245368 10.1002/jmr.755; details: read-out: Affinity (KD); cited from earlier work
[12] = molecular target: T2, Crk SH2 domain; experiment: SPOT peptide array; format: binding; details: GST-SH2 0.25 μM, membrane-bound peptide, 1 mM DTT, LiCor read-out
In short: as §4

[13] = system: Hck SH2 domain; experiment: SPOT peptide array; format: binding; details: GST-SH2 0.25 μM, membrane-bound peptide, 1 mM DTT, LiCor read-out
In short: as §4

[14] = molecular target: T4, Nck1 SH2 domain (Homo sapiens, UniProt P16333); design: method as in PMID 16636066; details: peptide similar to the TIR10 peptide (EHIpYDEVAAD); read-out: Affinity (KD); cited from earlier work
[15] = molecular target: T4, Nck1 SH2 domain; experiment: SPOT peptide array; format: binding; details: GST-SH2 0.25 μM, membrane-bound peptide, 1 mM DTT, LiCor read-out
In short: as §4

[16] = molecular target: T5, Shc1 SH2 domain (Homo sapiens, UniProt P29353); design: method as in PMID 7544002; details: read-out: Affinity (KD); cited from earlier work
T5 sequence (P29353 488-579 limits assumed): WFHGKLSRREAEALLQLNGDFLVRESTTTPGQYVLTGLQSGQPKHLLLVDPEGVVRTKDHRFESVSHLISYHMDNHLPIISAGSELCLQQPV

[17] = molecular target: T6, Rasa1_C SH2 domain (Homo sapiens, UniProt P20936); experiment: SPOT peptide array; format: binding; details: GST-SH2 0.25 μM, membrane-bound peptide, 1 mM DTT, LiCor read-out
T6 sequence (P20936 351-441 limits assumed): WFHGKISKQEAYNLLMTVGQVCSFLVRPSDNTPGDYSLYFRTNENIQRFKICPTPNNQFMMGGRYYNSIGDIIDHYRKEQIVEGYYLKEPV

[18] = system: Ptpn11_C SH2 domain; experiment: SPOT peptide array; format: binding; details: spot intensity as factor of array mean; GST-SH2 0.25 μM
In short: as §4

[19] = molecular target: T1, Ptpn11_N SH2 domain; experiment: SPOT peptide array; format: binding; details: spot intensity as factor of array mean; GST-SH2 0.25 μM
In short: as §4

[20] = system: Ptpn11 SH2 domain (N or C not specified); experiment: SPOT peptide array; format: binding; details: GST-SH2 0.25 μM, membrane-bound peptide, 1 mM DTT, LiCor read-out
In short: as §4

[21] = system: Bmx SH2 domain; experiment: SPOT peptide array; format: binding; details: GST-SH2 0.25 μM, membrane-bound peptide, 1 mM DTT, LiCor read-out
In short: as §4

[22] = spot intensity as factor of array mean

CrkL SH2 domain, sequence (P46109 14-102 limits assumed): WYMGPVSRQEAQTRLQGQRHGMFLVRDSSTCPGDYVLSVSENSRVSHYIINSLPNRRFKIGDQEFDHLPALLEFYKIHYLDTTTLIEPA

CC[C@H](C)[C@H](NC(=O)[C@H](Cc1ccc(OP(=O)(O)O)cc1)NC(=O)[C@H](CC(N)=O)NC(=O)[C@H](CC(C)C)NC(=O)CNC(=O)[C@@H](N)CC(N)=O)C(=O)N[C@@H](CC(=O)O)C(=O)N[C@@H](CC(C)C)C(=O)N[C@@H](CC(=O)O)C(=O)N[C@@H](CC(C)C)C(=O)N[C@H](C(=O)O)C(C)C [NGLNpYIDLDLV]
Kd [1]: > 50000 nM
Kd [2]: > 50000 nM
Kd [3]: 15000 nM

CC[C@H](C)[C@H](NC(=O)[C@H](CC(N)=O)NC(=O)[C@@H](NC(=O)[C@H](Cc1ccc(OP(=O)(O)O)cc1)NC(=O)[C@H](CCC(=O)O)NC(=O)CNC(=O)[C@@H]1CCCN1C(=O)[C@@H](N)CO)C(C)C)C(=O)N[C@@H](CCC(=O)O)C(=O)N[C@@H](Cc1ccccc1)C(=O)NCC(=O)O [SPGEpYVNIEFG]
Kd [4]: 2920 nM
Kd [5]: 2080 nM
Kd [6]: > 20000 nM
Kd [3]: 2680 nM

AEPQpYEEIPIY [11-mer phosphotyrosine control peptide, Middle T-antigen (Y323), reference compound]
Other SH2 domains bound (additional array-positive SH2 domains) [7]: Blk, Brk, Fer, Fgr, Hck, Lyn, Nck1, Shc1, Yes
Array positive [8]: Yes (Array-positive binding was ascribed to interactions with intensities greater than three times the array mean)
Kd [9]: 1300 ± 200 nM
Array positive [10]: Yes (Array-positive binding was ascribed to interactions with intensities greater than three times the array mean)
Kd [11]: 550 to 800 nM

EDDGpYDVPKPP [11-mer phosphotyrosine control peptide, Cbl (Y774), reference compound]
Other SH2 domains bound (additional array-positive SH2 domains) [7]: Crkl and Fgr, Src, Yes
Array positive [12]: Yes (Array-positive binding was ascribed to interactions with intensities greater than three times the array mean)
Array positive [13]: Yes (Array-positive binding was ascribed to interactions with intensities greater than three times the array mean)

GLDEpYDEVPMP [11-mer phosphotyrosine control peptide, B3AT (Y921), similar to the TIR10 peptide, reference compound]
Kd [14]: 60 nM
Array positive [15]: Yes (Array-positive binding was ascribed to interactions with intensities greater than three times the array mean)

HDGLpYQGLSTA (HDGLYQGLSTA) [11-mer phosphotyrosine control peptide, CD150 (Y142)]
Kd [16]: 50000 nM

QDSLpYSDPLDS [11-mer phosphotyrosine peptide, p62DOK1 (Y315)]
Other SH2 domains bound (additional array-positive SH2 domains) [7]: Abl1, Blk, Crk, Lck, Lyn, Nck1, Src, Zap70_N
Array positive [17]: Yes (Array-positive binding was ascribed to interactions with intensities greater than three times the array mean)

STVEpYSTVVHS [11-mer phosphotyrosine control peptide, gp130/IL-6 Receptor (Y759), reference compound]
Other SH2 domains bound (additional array-positive SH2 domains) [7]: PTPN11_N is 1.33X Mean, PTPN11_C is 2.8X Mean Brdg1, Brk, Sh2d1b
Peptide array intensity (X mean) [18]: 2.8 X Mean
Peptide array intensity (X mean) [19]: 1.33 X Mean
Array positive [20]: No (Peptide spots with average intensity values between 1X-3X the array mean were defined as ‘indeterminate’. Those with intensities below 1X mean were defined as array negative)

WMEDpYDYVHLQ [11-mer phosphotyrosine peptide, p130Cas (Y664)]
Other SH2 domains bound (additional array-positive SH2 domains) [7]: Bcar3, Brk, Crk, Crkl, Dapp1, Fer, Grb7, Matk, PI3K1_N, Rasa1_N, Rasa1_C, Sh3bp2 and Itk
Array positive [8]: No (Peptide spots with average intensity values between 1X-3X the array mean were defined as ‘indeterminate’. Those with intensities below 1X mean were defined as array negative)
Peptide array intensity (X mean) [8, 22]: 2.03 X Mean
Array positive [10]: No (Peptide spots with average intensity values between 1X-3X the array mean were defined as ‘indeterminate’. Those with intensities below 1X mean were defined as array negative)
Peptide array intensity (X mean) [10, 22]: 2.45 X Mean
Array positive [21]: Yes (Array-positive binding was ascribed to interactions with intensities greater than three times the array mean)
Array positive [15]: Yes (Array-positive binding was ascribed to interactions with intensities greater than three times the array mean)
Kd [11]: 25 to 46 nM
